In patent US11746100B2 (GLOBAL BLOOD THERAPEUTICS, INC., priority 2020, dated 2023):

Target: T1, human ferroportin (Homo sapiens, UniProt Q9NP59)
T1 construct: luciferase reporter (read with the Nano-Glo Luciferase Assay System); expressed in transfected cells; host or cells: CHO cells, stably transfected, expression induced with doxycycline
T1 sequence (Q9NP59 1-571): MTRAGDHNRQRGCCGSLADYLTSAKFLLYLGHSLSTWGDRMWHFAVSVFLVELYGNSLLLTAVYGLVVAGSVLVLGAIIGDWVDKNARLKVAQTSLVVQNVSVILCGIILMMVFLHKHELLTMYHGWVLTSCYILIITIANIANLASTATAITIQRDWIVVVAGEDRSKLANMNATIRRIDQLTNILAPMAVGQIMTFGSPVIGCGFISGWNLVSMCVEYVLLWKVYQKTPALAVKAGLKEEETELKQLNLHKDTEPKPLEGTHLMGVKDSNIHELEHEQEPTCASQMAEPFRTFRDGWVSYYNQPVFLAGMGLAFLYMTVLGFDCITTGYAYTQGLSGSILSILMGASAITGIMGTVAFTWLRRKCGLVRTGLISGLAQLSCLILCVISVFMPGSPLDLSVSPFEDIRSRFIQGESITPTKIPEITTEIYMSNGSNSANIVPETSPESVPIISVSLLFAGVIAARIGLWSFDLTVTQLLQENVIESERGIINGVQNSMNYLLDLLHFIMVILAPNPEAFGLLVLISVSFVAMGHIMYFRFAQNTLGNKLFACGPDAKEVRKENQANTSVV
Experiment: Biological in-vitro ferroportin internalization assay (luciferase reporter)
Format: cell-based
Conditions: average pEC50; stably-transfected CHO cell line expressing human ferroportin tagged to a luciferase reporter; 6 h incubation with test compound
Method in brief: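 Read-out is Nano-Glo luciferase signal after 6 h compound exposure, with average pEC50 derived. Cells are a stable CHO line carrying luciferase-tagged human ferroportin, pre-loaded 24 h with ferric ammonium citrate and doxycycline-induced for 24 h.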

Cc1ccnc(-c2nc3c(c(N4CC(C(=O)NC5CCCCC5)C4)n2)CCC3)c1 [Compound 30, N-cyclohexyl-1-[2-(4-methylpyridin-2-yl)-5H,6H,7H-cyclopenta[d]pyrimidin-4-yl]azetidine-3-carboxamide]
pEC50: 5.7

C[C@H](C(=O)Nc1cccc(F)c1)N(C)c1nc(-c2cn(C)cn2)nc2c1CCC2 [Compound 277, (2R)—N-(3-fluorophenyl)-2-{methyl[2-(1-methyl-1H-imidazol-4-yl)-5H,6H,7H-cyclopenta[d]pyrimidin-4-yl]amino}propanamide]
pEC50: 8.2

CN(CC(=O)NC1(C)CCOC1)c1nc(-c2cn(C)cn2)nc2c1CCC2 (stereo not shown) [Compound 147, 2-{methyl[2-(1-methyl-1H-imidazol-4-yl)-5H,6H,7H-cyclopenta[d]pyrimidin-4-yl]amino}-N-(3-methyloxolan-3-yl)acetamide]
pEC50: 6.7

COc1ccc(N2CCCN(c3nc(-c4ccccn4)nc4c3CCC4)CC2=O)cc1 [Compound 188, 1-(4-methoxyphenyl)-4-[2-(pyridin-2-yl)-5H,6H,7H-cyclopenta[d]pyrimidin-4-yl]-1,4-diazepan-2-one]
pEC50: 6.7

CN(c1nc(-c2ccccn2)nc2c1CCC2)C1(C(=O)NC2CCCCC2)CC1 [Compound 17, N-cyclohexyl-1-{methyl[2-(pyridin-2-yl)-5H,6H,7H-cyclopenta[d]pyrimidin-4-yl]amino}cyclopropane-1-carboxamide]
pEC50: 6.6

COc1cnc(NC(=O)CN(C)c2nc(-c3cc(OCCO)ccn3)nc3c2CCC3)nc1 [Compound 295, 2-({2-[4-(2-hydroxyethoxy)pyridin-2-yl]-5H,6H,7H-cyclopenta[d]pyrimidin-4-yl}(methyl)amino)-N-(5-methoxypyrimidin-2-yl)acetamide]
pEC50: 7

CN(CC(=O)Nc1cccc(F)c1)c1nc(-c2cc(OCC3(O)CC3)ccn2)nc2c1CCC2 [Compound 307, N-(3-fluorophenyl)-2-[(2-{4-[(1-hydroxycyclopropyl)methoxy]pyri-din-2-yl}-5H,6H,7H-cyclopenta[d]pyrimidin-4-yl)(methyl)amino]acetamide]
pEC50: 7.4

COc1ccnc(-c2nc3c(c(N(C)CC(=O)N[C@@H]4CCCC[C@H]4O)n2)CCC3)c1 [Compound 141, N-[(1R,2R)-2-hydroxycyclohexyl]-2-{[2-(4-methoxypyridin-2-yl)-5H,6H,7H-cyclopenta[d]pyrimidin-4-yl](methyl)amino}acetamide]
pEC50: 7.1

COc1ccnc(-c2nc3c(c(N(C)Cc4nc(-c5ccccc5)co4)n2)CCC3)c1 [Compound 380, 2-(4-methoxypyridin-2-yl)-N-methyl-N-[(4-phenyl-1,3-oxazol-2-yl)methyl]-5H,6H,7H-cyclopenta[d]pyrimidin-4-amine]
pEC50: 6.6

CN(CC(=O)Nc1ccc(F)nc1)c1nc(-c2cc3cnn(C4CCCCO4)c3cn2)nc2c1CCC2 (stereo not shown) [Compound 264, N-(6-fluoropyridin-3-yl)-2-[methyl({2-[1-(oxan-2-yl)-1H-pyrazolo[3,4-c]pyridin-5-yl]-5H,6H,7H-cyclopenta[d]pyrimidin-4-yl})amino]acetamide]
pEC50: 6.5

Cc1ccc(NC(=O)CN(C)c2nc(-c3cc(OCC4(O)CC4)ccn3)nc3c2CCC3)cn1 [Compound 330, 2-[(2-{4-[(1-hydroxycyclopropyl)methoxy]pyri-din-2-yl}-5H,6H,7H-cyclopenta[d]pyrimidin-4-yl)(methyl)amino]-N-(6-methylpyridin-3-yl)acetamide]
pEC50: 7.8

COc1cnc(-c2nc3c(c(N(C)CC(=O)NC(C)(C)C)n2)CCC3)cc1OC [Compound 145, N-tert-butyl-2-{[2-(4,5-dimethoxypyridin-2-yl)-5H,6H,7H-cyclopenta[d]pyrimidin-4-yl](methyl)amino}acetamide]
pEC50: 6.9

C[C@H](C(=O)Nc1cccc(F)c1)N(C)c1nc(-c2cc(OCCO)ccn2)nc2c1CCC2 [Compound 251, (2R)—N-(3-fluorophenyl)-2-({2-[4-(2-hydroxyethoxy)pyridin-2-yl]-5H,6H,7H-cyclopenta[d]pyrimidin-4-yl}(methyl)amino)propanamide]
pEC50: 8.3
